In brackets after ≈: the same amount, converted by molar mass. Activity calls are given as the source filed them. The calls are words filed in the database; no cut-off is given here.
Columns and labels:
Klebsiella pneumoniae = assay: Antimicrobial activity against Klebsiella pneumoniae; assay type: functional, organism-based
[1] = Cytotoxicity against CHOK1 cells; assay type: cell-based, Cricetulus griseus; details: chinese hamster, CHO-K1 cells; read-out: ED50 (the source's name)
[2] = system: Human immunodeficiency virus; assay: Antiviral activity against HIV; assay type: functional, organism-based

SMILES | Activity (Klebsiella pneumoniae) | CC50 [1] [µg/mL] | Activity [2]
CC(=O)O[C@H]1[C@@H]2[C@@H]3[C@@H](C[C@H]1C)[C@@H](C)CO[C@@]1(C)CC/C=C(/C)C[C@@H]2O[C@@H]31 | Active | 4.82 (≈ 13.3 µM) | 
CC(=O)O[C@H]1[C@@H]2[C@@H]3[C@@H](C[C@H]1C)[C@@H](C)CO[C@@]1(C)CC/C=C(\C)C[C@@H]2O[C@@H]31 [11-ACETOXY-4-DEOXYASBESTININ B] | Active | 2.5 (≈ 6.9 µM) | inactive
CCCC(=O)O[C@H]1[C@@H]2[C@@H]3[C@@H](C[C@H]1C)[C@@H](C)CO[C@@]1(C)CC/C=C(/C)C[C@@H]2O[C@@H]31 | Active | 3.55 (≈ 9.09 µM) | 
CCCC(=O)O[C@H]1[C@@H]2[C@@H]3[C@@H](C[C@H]1C)[C@@H](C)CO[C@@]1(C)CC/C=C(\C)C[C@@H]2O[C@@H]31 [4-DEOXYASBESTININ A] | Active | 3.35 (≈ 8.58 µM) | 

— ChEMBL document CHEMBL1158992, “Application of two-dimensional nmr spectroscopy in the structural determination of marine natural products. Isolation and total structural assignment of 4-deoxyasbestinin diterpenes from the Caribbean gorgonian Briareum asbestinum” (J Nat Prod, 1991)
